Source: US10259810B2, “N-sulfonylated pyrazolo[3,4-b]pyridin-6-carboxamides and method of use” (AbbVie S.à.r.l., priority 2015, dated 2019)

Key:
Assay type in all cases: cell-based
[1] = molecular target: T1, ΔF508-CFTR (Homo sapiens, UniProt P13569, DEL508-508); assay: CFTR cell surface levels using HRP-tagged ΔF508-CFTR expressing CFBE cells, in the presence of a co-corrector; details: HRP-tagged ΔF508-CFTR CFBE cells, in the presence of 3 μM co-corrector; for EC50: read-out: EC50
T1 construct: host or cells: CFBE41o-, doxycycline-inducible
T1 sequence (P13569 with tags, fused parts or gaps DEL508-508): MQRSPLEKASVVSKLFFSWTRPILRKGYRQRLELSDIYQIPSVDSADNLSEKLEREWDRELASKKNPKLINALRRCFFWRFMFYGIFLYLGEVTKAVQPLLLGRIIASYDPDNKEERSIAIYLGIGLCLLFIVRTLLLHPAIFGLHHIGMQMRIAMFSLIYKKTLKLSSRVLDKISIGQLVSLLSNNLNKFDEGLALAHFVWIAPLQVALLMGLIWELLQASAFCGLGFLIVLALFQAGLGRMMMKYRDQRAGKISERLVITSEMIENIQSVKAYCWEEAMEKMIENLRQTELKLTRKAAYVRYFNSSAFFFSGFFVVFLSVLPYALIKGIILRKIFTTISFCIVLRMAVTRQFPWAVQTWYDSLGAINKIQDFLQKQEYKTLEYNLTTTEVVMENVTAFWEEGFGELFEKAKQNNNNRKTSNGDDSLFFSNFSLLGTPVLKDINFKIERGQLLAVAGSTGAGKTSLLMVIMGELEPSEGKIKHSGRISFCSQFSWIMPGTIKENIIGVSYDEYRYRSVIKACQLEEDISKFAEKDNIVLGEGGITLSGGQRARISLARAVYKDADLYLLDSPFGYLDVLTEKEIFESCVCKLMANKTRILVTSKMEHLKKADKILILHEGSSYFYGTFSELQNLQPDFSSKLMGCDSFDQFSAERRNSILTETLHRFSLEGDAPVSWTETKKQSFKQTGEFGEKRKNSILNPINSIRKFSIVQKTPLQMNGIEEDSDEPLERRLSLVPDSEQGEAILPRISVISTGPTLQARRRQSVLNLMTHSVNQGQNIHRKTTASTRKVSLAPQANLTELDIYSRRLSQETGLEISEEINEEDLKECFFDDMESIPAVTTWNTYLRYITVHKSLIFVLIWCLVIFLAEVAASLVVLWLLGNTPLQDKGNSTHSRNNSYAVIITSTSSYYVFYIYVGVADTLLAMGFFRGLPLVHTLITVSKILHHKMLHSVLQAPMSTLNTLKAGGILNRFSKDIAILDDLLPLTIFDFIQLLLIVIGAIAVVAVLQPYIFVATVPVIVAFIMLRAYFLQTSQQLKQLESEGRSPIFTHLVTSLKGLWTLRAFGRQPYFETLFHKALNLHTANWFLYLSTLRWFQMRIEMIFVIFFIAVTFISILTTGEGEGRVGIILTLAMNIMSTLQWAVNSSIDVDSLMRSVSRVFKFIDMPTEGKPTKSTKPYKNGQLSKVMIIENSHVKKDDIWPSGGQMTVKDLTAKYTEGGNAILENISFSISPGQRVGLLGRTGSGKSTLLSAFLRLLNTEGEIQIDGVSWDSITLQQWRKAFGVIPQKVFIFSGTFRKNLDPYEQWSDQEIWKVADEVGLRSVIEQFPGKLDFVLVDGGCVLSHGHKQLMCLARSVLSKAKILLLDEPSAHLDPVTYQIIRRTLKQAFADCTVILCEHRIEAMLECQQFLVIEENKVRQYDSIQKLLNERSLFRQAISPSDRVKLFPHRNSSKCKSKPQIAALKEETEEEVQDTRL
In short: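 Chemiluminescent read-out of surface HRP (15 min, dark) after PBS washes. Activity is normalized as 100×(sample−DMSO)/(3 μM co-corrector alone−DMSO).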

[2] = molecular target: T1, ΔF508-CFTR; assay: CFTR cell surface levels using HRP-tagged ΔF508-CFTR expressing CFBE cells, intrinsic corrector capacity; design: % Activation: concentration or dose not given beside the values; details: HRP-tagged ΔF508-CFTR expressing CFBE41o- cells, compound alone (intrinsic corrector capacity), 20 hours at 33° C.; for EC50: read-out: EC50
In short: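 Read-out: chemiluminescent HRP activity of ECL4-HRP-tagged ΔF508-CFTR at the cell surface, 15 min substrate in dark. Normalized as 100×(sample−DMSO)/(positive control−DMSO).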

[3] = molecular target: T2, CFTR ΔF508 (Homo sapiens, UniProt P13569, DEL508-508); assay: Chronic TECC assay, primary bronchial epithelial cells of CF patients homozygous for CFTR ΔF508 (corrector, co-corrector and potentiator); details: chronic TECC, AUC = full area under the curve upon forskolin stimulation; for % Activity at 1 μM (AUC**): test compound at 1 μM; for EC50: read-out: EC50 (nM) (AUC**)
T2 construct: bronchial epithelial cells isolated from CF patients homozygous for the CFTR ΔF508 mutation; McGill University; Asterand; University of North Carolina hAEC-CF; host or cells: primary human bronchial epithelial cells from CF patients homozygous for ΔF508, differentiated at air-liquid interface
T2 sequence (P13569 with tags, fused parts or gaps DEL508-508): as above
In short: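 Primary bronchial epithelial cells from ΔF508-homozygous CF patients on collagen IV-coated Transwells were chronically treated with test compound plus corrector and potentiator, which were re-added before recording. Ieq was derived from PD and Rt in NaCl-Ringer, pH 7.4, at 37° C, with apical amiloride and bilateral forskolin, recorded every 2 min over 20 min. Ieq increase was normalized to controls, and EC50 was taken from per-well concentrations.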

Row | SMILES | % Activation [1] [%] | EC50 [1] [nM] | % Activation [2] [%] | EC50 [2] [nM] | % Activity at 3 μM (AUC**) ([3]; test compound at 3 μM) [%] | % Activity at 1 μM (AUC**) [3] [%] | EC50 [3] [nM]
1 | COCC1CCN(c2cc(C(=O)NS(C)(=O)=O)nc3c2c(C(C)C)nn3-c2cc(C)nc(C)c2)CC1 [Compound 370, 1-(2,6-dimethylpyridin-4-yl)-N-(methanesulfonyl)-4-[4-(methoxymethyl)piperidin-1-yl]-3-(propan-2-yl)-1H-pyrazolo[3,4-b]pyridine-6-carboxamide] | 343.2 | 691 | 172.2 | 1490 | 226.54 | – | –
2 | COCC1CCN(c2cc(C(=O)NS(=O)(=O)c3cn(C)c(C)n3)nc3c2c(C2CCC2)nn3-c2ccccc2)CC1 [Compound 250, 3-cyclobutyl-N-(1,2-dimethyl-1H-imidazole-4-sulfonyl)-4-[4-(methoxymethyl)piperidin-1-yl]-1-phenyl-1H-pyrazolo[3,4-b]pyridine-6-carboxamide] | 440.4 | 372 | 232.7 | 514 | – | 331.21 | –
3 | O=C(NS(=O)(=O)NC1CCOCC1)c1cc(N2CCC(N3CCOCC3)CC2)c2c(C3CCC3)nn(-c3ccc(F)cc3)c2n1 [Compound 578, 3-cyclobutyl-1-(4-fluorophenyl)-4-[4-(morpholin-4-yl)piperidin-1-yl]-N-[(oxan-4-yl)sulfamoyl]-1H-pyrazolo[3,4-b]pyridine-6-carboxamide] | 462.3 | 108 | 309.25 | 152 | – | 936.6667 | –
4 | CS(=O)(=O)NC(=O)c1cc(N2CCC(OC3CCCCC3)CC2)c2c(C3CCC3)nn(-c3ccccc3)c2n1 [Compound 229, 3-cyclobutyl-4-[4-(cyclohexyloxy)piperidin-1-yl]-N-(methanesulfonyl)-1-phenyl-1H-pyrazolo[3,4-b]pyridine-6-carboxamide] | 418.65 | 366 | 174.2 | 414 | – | 430 | 20
5 | COC1CCN(c2cc(C(=O)NS(C)(=O)=O)nc3c2c(C(C)C)nn3-c2ccnc(N3CCOCC3)c2)CC1 [Compound 187, N-(methanesulfonyl)-4-(4-methoxypiperidin-1-yl)-1-[2-(morpholin-4-yl)pyridin-4-yl]-3-(propan-2-yl)-1H-pyrazolo[3,4-b]pyridine-6-carboxamide] | 308.87 | 69.3 | 160 | 223 | – | 180 | > 1000
6 | COCC1CCN(c2cc(C(=O)NS(=O)(=O)CCN(C)C)nc3c2c(C2CCC2)nn3-c2ccccc2)CC1 [Compound 273, 3-cyclobutyl-N-[2-(dimethylamino)ethanesulfonyl]-4-[4-(methoxymethyl)piperidin-1-yl]-1-phenyl-1H-pyrazolo[3,4-b]pyridine-6-carboxamide] | 344.05 | 111 | 182.4 | 562 | – | 197.06 | –
